Assay results reported in PubChem BioAssay (NCI).
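Results reflect a 48-hour exposure of cells in 96-well plates to compound at five concentrations. GI50 is the concentration that inhibits growth by half. TGI denotes the concentration required for complete inhibition of growth.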

How the values were obtained:
Assay in all cases: NCI-60 cell line screen, 48 h
HCT-116 colon = system: HCT-116 colon
MALME-3M melanoma = system: MALME-3M melanoma
OVCAR-8 ovarian = system: OVCAR-8 ovarian
SNB-75 CNS = system: SNB-75 CNS
TK-10 renal = system: TK-10 renal
HS 578T breast = system: HS 578T breast
MDA-MB-231 breast = system: MDA-MB-231 breast
NCI/ADR-RES ovarian = system: NCI/ADR-RES ovarian
RPMI-8226 leukemia = system: RPMI-8226 leukemia
RXF 393 renal = system: RXF 393 renal

COc1ccc2nc3ccccc3c(NCCN(CCCl)CCCl)c2c1
TGI (HCT-116 colon): 2.08 µM
TGI (MALME-3M melanoma): 3.01 µM
TGI (OVCAR-8 ovarian): 2.9 µM
TGI (SNB-75 CNS): 5.72 µM
TGI (TK-10 renal): 5.59 µM

CC(C)C1=CC2=C(C(=O)C1=O)C13CCCC(C)(C)C1CC2OC3=O (centres undefined)
TGI (HCT-116 colon): 33.2 µM
TGI (HS 578T breast): > 100 µM
TGI (MDA-MB-231 breast): 42.6 µM
TGI (NCI/ADR-RES ovarian): 40.1 µM
TGI (OVCAR-8 ovarian): 35.4 µM
TGI (RPMI-8226 leukemia): 39.7 µM
TGI (SNB-75 CNS): 63.8 µM
TGI (TK-10 renal): 28.6 µM

N#CCCN(c1ccc(C=O)cc1)S(=O)(=O)c1ccccc1
TGI (HCT-116 colon): > 100 µM
TGI (MALME-3M melanoma): > 100 µM
TGI (OVCAR-8 ovarian): > 100 µM
TGI (RPMI-8226 leukemia): > 100 µM
TGI (SNB-75 CNS): > 100 µM

CSC1=Nc2ccccc2N=C(c2ccccc2)C1
TGI (HCT-116 colon): 45.6 µM
TGI (MALME-3M melanoma): > 100 µM
TGI (OVCAR-8 ovarian): > 100 µM
TGI (RXF 393 renal): 71.6 µM
TGI (SNB-75 CNS): > 100 µM
TGI (TK-10 renal): > 100 µM

O=C(CC(=O)c1cccc([N+](=O)[O-])c1)C(=O)Nc1ccccc1
TGI (HCT-116 colon): > 100 µM
TGI (MALME-3M melanoma): > 100 µM
TGI (OVCAR-8 ovarian): > 100 µM
TGI (RPMI-8226 leukemia): > 100 µM
TGI (RXF 393 renal): > 100 µM
TGI (SNB-75 CNS): > 100 µM
TGI (TK-10 renal): > 100 µM

CCN(CC)C(=O)CC12CCCCC1=Nc1ccccc12 (centres undefined)
TGI (HCT-116 colon): > 100 µM
TGI (MALME-3M melanoma): > 100 µM
TGI (OVCAR-8 ovarian): > 100 µM
TGI (RPMI-8226 leukemia): > 100 µM
TGI (SNB-75 CNS): > 100 µM
TGI (TK-10 renal): > 100 µM

CC[As](CC)SCC1OC(OC(C)=O)C(OC(C)=O)C(OC(C)=O)C1OC(C)=O (centres undefined)
TGI (HCT-116 colon): 32.1 µM
TGI (MALME-3M melanoma): 10.3 µM
TGI (OVCAR-8 ovarian): 31.9 µM
TGI (RPMI-8226 leukemia): 36.2 µM
TGI (RXF 393 renal): 9.69 µM
TGI (SNB-75 CNS): 52.7 µM
TGI (TK-10 renal): 30.4 µM

O=C(CC1(O)C(=O)Nc2ccccc21)c1ccccc1O (centres undefined)
TGI (HCT-116 colon): > 100 µM
TGI (MALME-3M melanoma): > 100 µM
TGI (OVCAR-8 ovarian): > 100 µM
TGI (RPMI-8226 leukemia): > 100 µM
TGI (RXF 393 renal): > 100 µM
TGI (SNB-75 CNS): > 100 µM
TGI (TK-10 renal): > 100 µM

CO/C(=C1/NC(=O)C(Cc2ccc(O)c(Br)c2)N(C)C(=O)C(C)NC(=O)CCC/C=C(\C)CCC(C)OC1=O)c1ccccc1 (centres undefined)
GI50 (HCT-116 colon): < 0.0146 µM
GI50 (HS 578T breast): 0.0225 µM
TGI (HS 578T breast): 0.0553 µM
GI50 (MALME-3M melanoma): 0.0319 µM
TGI (MALME-3M melanoma): 0.123 µM
GI50 (MDA-MB-231 breast): 0.0348 µM
TGI (MDA-MB-231 breast): 6.58 µM
GI50 (NCI/ADR-RES ovarian): 0.0566 µM
TGI (NCI/ADR-RES ovarian): 18.1 µM
GI50 (OVCAR-8 ovarian): 0.0437 µM
TGI (OVCAR-8 ovarian): 6.41 µM
GI50 (RPMI-8226 leukemia): < 0.0155 µM
TGI (RPMI-8226 leukemia): 0.0607 µM
GI50 (RXF 393 renal): 0.0347 µM
TGI (RXF 393 renal): 16.2 µM

COc1cc(N2CCC(N)CC2)ccc1Nc1ncc(Cl)c(-c2c[nH]c3ccccc23)n1
GI50 (HCT-116 colon): 0.422 µM
TGI (HCT-116 colon): 1.78 µM
GI50 (HS 578T breast): 0.741 µM
TGI (HS 578T breast): 3.87 µM
GI50 (MDA-MB-231 breast): 1.22 µM
TGI (MDA-MB-231 breast): 2.79 µM
GI50 (NCI/ADR-RES ovarian): 1.49 µM
TGI (NCI/ADR-RES ovarian): 4.11 µM
GI50 (OVCAR-8 ovarian): 1.13 µM
TGI (OVCAR-8 ovarian): 2.44 µM
GI50 (RPMI-8226 leukemia): 1.28 µM
TGI (RPMI-8226 leukemia): 3.89 µM
GI50 (RXF 393 renal): 0.338 µM
TGI (RXF 393 renal): 1.41 µM
GI50 (SNB-75 CNS): 0.417 µM
TGI (SNB-75 CNS): 1.97 µM
GI50 (TK-10 renal): 0.36 µM
TGI (TK-10 renal): 1.6 µM

CN(C)c1ccc(/C=c2/c3cc(O)ccc3n3c2cc(-c2ccccc2)[n+]3C)cc1
GI50 (HCT-116 colon): 1.1 µM
TGI (HS 578T breast): 1.25 µM
TGI (MDA-MB-231 breast): 2.82 µM
TGI (NCI/ADR-RES ovarian): > 100 µM
TGI (OVCAR-8 ovarian): 2.03 µM
GI50 (RPMI-8226 leukemia): 1.35 µM
TGI (RXF 393 renal): 3.54 µM
TGI (SNB-75 CNS): 1.95 µM
GI50 (TK-10 renal): 4.88 µM
TGI (TK-10 renal): > 100 µM
